Experimental data reported in patent US7351728B2, “Oxazolyl-aryloxyacetic acid derivatives and their use as PPAR agonists” (Eli Lilly and Company, priority 2003, dated 2008).

How the values were obtained:
[1] = molecular target: T1, huPPARα (Homo sapiens, UniProt Q07869); assay: DNA-dependent binding (ABCD binding), SPA, tritium-labeled PPARα agonist radioligand; conditions: displacement of tritium-labeled PPARα agonist
T1 sequence (Q07869 1-468): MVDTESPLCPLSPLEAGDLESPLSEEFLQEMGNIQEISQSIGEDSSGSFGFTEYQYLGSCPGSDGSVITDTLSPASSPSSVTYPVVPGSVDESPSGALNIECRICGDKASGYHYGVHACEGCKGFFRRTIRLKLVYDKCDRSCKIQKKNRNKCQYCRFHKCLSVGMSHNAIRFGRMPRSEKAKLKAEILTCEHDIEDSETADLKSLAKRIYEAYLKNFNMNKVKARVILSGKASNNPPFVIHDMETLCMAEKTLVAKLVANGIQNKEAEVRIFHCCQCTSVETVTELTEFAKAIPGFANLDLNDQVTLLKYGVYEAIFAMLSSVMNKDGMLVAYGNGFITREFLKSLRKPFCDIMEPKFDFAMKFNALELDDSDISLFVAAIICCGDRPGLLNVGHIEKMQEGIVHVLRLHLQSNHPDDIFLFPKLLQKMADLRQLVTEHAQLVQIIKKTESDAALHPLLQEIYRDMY
T1 sequence (P19793 1-462 partner): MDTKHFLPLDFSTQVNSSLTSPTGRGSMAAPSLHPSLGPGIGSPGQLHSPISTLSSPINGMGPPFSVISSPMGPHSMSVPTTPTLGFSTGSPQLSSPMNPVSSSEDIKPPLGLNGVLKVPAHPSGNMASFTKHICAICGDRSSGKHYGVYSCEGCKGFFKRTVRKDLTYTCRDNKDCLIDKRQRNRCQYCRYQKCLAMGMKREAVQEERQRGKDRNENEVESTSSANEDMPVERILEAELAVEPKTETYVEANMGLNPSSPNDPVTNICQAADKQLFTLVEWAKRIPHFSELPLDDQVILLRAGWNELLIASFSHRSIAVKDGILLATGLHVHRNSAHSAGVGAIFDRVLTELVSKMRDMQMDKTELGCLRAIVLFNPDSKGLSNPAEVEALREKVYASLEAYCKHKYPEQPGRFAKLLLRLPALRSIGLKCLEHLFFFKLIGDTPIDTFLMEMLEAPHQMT
Method: DNA-dependent binding (ABCD binding) was carried out using SPA technology with PPAR receptors. Tritium-labeled PPARα and PPARγ agonists were used as radioligands for generating displacement curves and IC50 values with compounds of the invention. Cotransfection assays were carried out in CV-1 cells. The reporter plasmid contained an acylCoA oxidase (AOX) PPRE and TK promoter upstream of the luciferase reporter cDNA. Appropriate PPARs and RXRα were constitutively expressed using plasmids containing the CMV promoter. […] In order to eliminate such interference, a GAL4 chimeric system was used in which the DNA binding domain of the transfected PPAR was replaced by that of GAL4, and the GAL4 response element was utilized in place of the AOX PPRE. Cotransfection efficacy was determined relative to PPARα agonist and PPARγ agonist reference molecules. Efficacies were determined by computer fit to a concentration-response curve, or in some cases at a single high concentration of agonist (10 μM). For binding or cotransfection studies with receptors other than PPARs, similar assays were carried out using appropriate ligands, receptors, reporter constructs, etc., for that particular receptor.
These studies were carried out to evaluate the ability of compounds of the invention to bind to and/or activate various nuclear transcription factors, particularly huPPARα (“hu” indicates “human”) and huPPARγ. These studies provide in vitro data concerning efficacy and selectivity of compounds of the invention. Furthermore, binding and cotransfection data for compounds of the invention were compared with corresponding data for marketed compounds that act on either huPPARα or huPPARγ.
Binding and cotransfection data for representative compounds of the invention are compared with corresponding data for reference compounds in Table II.

SMILES | IC50 [1] | melting point
Cc1oc(-c2ccccc2)nc1CCOc1ccc(OC(C)(C)C(=O)O)cc1 [Example 1, 2-Methyl-2-{4-[2-(5-methyl-2-phenyloxazol-4-yl)ethoxy]phenoxy}propionic acid] | 1680 nM | –
Cc1oc(-c2cccc(Br)c2)nc1CCOc1ccc(OC(C)(C)C(=O)O)cc1 [Example 9A, 2-(4-{2-[2-(3-Bromophenyl)-5-methyloxazol-4-yl]ethoxy}phenoxy)-2-methylpropionic acid] | 75 nM | 158 to 159 °C
CCc1cccc(-c2nc(CCOc3ccc(OC(C)(C)C(=O)O)cc3)c(C)o2)c1 [Example 12, 2-(4-{2-[2-(3-Ethylphenyl)-5-methyloxazol-4-yl]ethoxy}phenoxy)-2-methylpropionic acid] | 31 nM | 134 to 135 °C
CCc1ccc(-c2nc(CCOc3ccc(OC(C)(C)C(=O)O)cc3)c(C)o2)cc1 [Example 13, 2-(4-{2-[2-(4-Ethylphenyl)-5-methyloxazol-4-yl]ethoxy}phenoxy)-2-methylpropionic acid] | 25 nM | –
Cc1oc(-c2ccc(OC3CCCCC3)cc2)nc1CCOc1ccc(OC(C)(C)C(=O)O)cc1 [Example 21, 2-(4-{2-[2-(4-Cyclohexyloxy-phenyl)-5-methyl-oxazol-4-yl]-ethoxy}-phenoxy)-2-methyl-propionic acid] | 401 nM | –
Cc1cc(OCCc2nc(-c3ccccc3)oc2C)ccc1OC(C)(C)C(=O)O [Example 24, 2-Methyl-2-{2-methyl-4-[2-(5-methyl-2-phenyloxazol-4-yl)ethoxy]phenoxy}propionic acid] | 624 nM | 117 °C
CCCc1cc(OCCc2nc(-c3ccccc3)oc2C)ccc1OCC(=O)O [Example 26, {4-[2-(5-methyl-2-phenyl-oxazol-4-yl)ethoxy]-2-propylphenoxy}acetic acid] | 3280 nM | –
Cc1oc(-c2ccccc2)nc1CCOc1ccc(OC(C)(C)C(=O)O)c(Cc2ccccc2)c1 [Example 32, 2-{2-Benzyl-4-[2-(5-methyl-2-phenyloxazol-4-yl)ethoxy]phenoxy}-2-methylpropionic acid] | 50 nM | –
Cc1oc(-c2ccccc2)nc1CCOc1ccc(OC(C)(C)C(=O)O)c2ccccc12 [Example 37, 2-Methyl-2-{4-[2-(5-methyl-2-phenyl-oxazol-4-yl)-ethoxy]-naphthalen-1-yloxy}-propionic acid] | 294 nM | –
Cc1oc(-c2ccccc2)nc1CCOc1ccc(OC(C)(C)C(=O)O)c2c1CCCC2 [Example 38, 2-Methyl-2-{4-[2-(5-methyl-2-phenyl-oxazol-4-yl)-ethoxy]-5,6,7,8-tetrahydro-naphthalen-1-yloxy}-propionic acid] | 254 nM | –

Results, then the molecule that gave them:

IC50 [1] | melting point | SMILES
233 nM | 124 to 125 °C | Cc1oc(-c2cccc(CCc3ccccc3)c2)nc1CCOc1ccc(OC(C)(C)C(=O)O)cc1 [Example 12A, 2-Methyl-2-(4-{2-[5-methyl-2-(3-phenethylphenyl)oxazol-4-yl]ethoxy}phenoxy)-propionic acid]
79 nM | – | CCCc1cc(OCCc2nc(-c3ccccc3)oc2C)ccc1OC(C)(C)C(=O)O [Example 26A, 2-Methyl-2-{4-[2-(5-methyl-2-phenyloxazol-4-yl)ethoxy]-2-propylphenoxy}propionic acid]
113 nM | – | CCCc1cc(OC(C)(C)C(=O)O)ccc1OCCc1nc(-c2ccccc2)oc1C [Example 27A, 2-Methyl-2-{4-[2-(5-methyl-2-phenyloxazol-4-yl)ethoxy]-3-propylphenoxy}propionic acid]
189 nM | – | CCc1cc(OCCc2nc(-c3ccccc3)oc2C)ccc1OC(C)(C)C(=O)O [Example 30A, 2-{2-Ethyl-4-[2-(5-methyl-2-phenyloxazol-4-yl)ethoxy]phenoxy}2-methylpropionic acid]
259 nM | – | Cc1oc(-c2ccccc2)nc1CCOc1ccc(OC(C)(C)C(=O)O)c(CC(C)C)c1 [Example 30C, 2-{2-Isobutyl-4-[2-(5-methyl-2-phenyloxazol-4-yl)ethoxy]phenoxy}-2-methylpropionic acid]
82 nM | – | Cc1oc(-c2ccccc2)nc1CCOc1ccc(OC(C)(C)C(=O)O)c(CCc2ccccc2)c1 [Example 30J, 2-Methyl-2-{4-[2-(5-methyl-2-phenyloxazol-4-yl)ethoxy]-2-phenethylphenoxy}propionic acid]
30 nM | – | CCCCc1cc(OC(C)(C)C(=O)O)ccc1OCCc1nc(-c2ccccc2)oc1C [Example 31F, 2-{3-Butyl-4-[2-(5-methyl-2-phenyloxazol-4-yl)ethoxy]phenoxy}-2-methylpropionic acid]
